Experimental data: patent US11891634B2, “PDE5A destabilizing domains” (The Board of Trustees of the Leland Stanford Junior …, priority 2017, dated 2024)

Assays:
Assay type in all cases: cell-based, human
[1] = system: HCT 116 cells transduced with the PDE5A DD derived GFP constructs; test: Response to Vardenafil, GFP expression by FACS in HCT116; conditions: for MFI / Stabilization ratio with Vardenafil: 48 hours, HCT116
Procedure, shortened: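 HCT116 cells stably carrying lentiviral AcGFP fusions of PDE5A (535-860) mutants, sorted on mCherry, got DMSO or Vardenafil (10 μM, or 0.002–30 μM) for 48 h, and GFP MFI was read by flow cytometry. Basal expression is untreated GFP over parental autofluorescence; the stabilization ratio is treated over untreated MFI.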

[2] = system: HCT 116 cells transduced with the PDE5A DD derived GFP constructs; test: Response to Tadalafil, GFP expression by FACS in HCT116; conditions: for MFI / Stabilization ratio with Tadalafil: 48 hours, HCT116
Procedure, shortened: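 HCT116 cells stably transduced (mCherry-sorted) with lentiviral PDE5A DD–AcGFP constructs, exposed to DMSO or Tadalafil 0.01–100 μM for 48 hrs. GFP mean fluorescence by FACS; stabilization ratio = ligand vs no-ligand signal, basal expression = no-ligand signal vs parental autofluorescence.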

[3] = system: HCT116 cells transduced with the constructs; test: Response to Sildenafil, GFP expression by flow cytometry in HCT116; conditions: for MFI / Stabilization ratio with Sildenafil: 48 hours, HCT116
Procedure, shortened: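 HCT116 cells stably expressing AcGFP-fused destabilizing domains from a lentiviral mCherry-marked vector (sorted on mCherry) were exposed to sildenafil at 0.01–100 μM for 48 hours. GFP mean fluorescence intensity was measured by flow cytometry.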

Substance: PDE5AC (#28): AcGFP fused to C-terminal DD 535-860 of PDE5A (Q589R, K591E, N609H, D764V), SEQ ID NO. 25
- MFI ([1]; DMSO (no Vardenafil)): 13817
- Basal (DMSO/Parental) ([1]; Table 10, GFP signal without ligand / auto fluorescence of parental HCT-116): 10.4
- Basal ([1]; Table 15, MFI with DMSO / parental HCT116, Vardenafil experiment): 7.07
- Stabilization ratio with Vardenafil ([1]; Vardenafil 0.002 μM vs DMSO): 1.1
- MFI ([1]; Vardenafil 0.002 μM): 15437
- MFI ([1]; Vardenafil 0.005 μM): 19446
- Stabilization ratio with Vardenafil ([1]; Vardenafil 0.014 μM vs DMSO): 2.1
- MFI ([1]; Vardenafil 0.014 μM): 29314
- Stabilization ratio with Vardenafil ([1]; Vardenafil 0.041 μM vs DMSO): 3.3
- MFI ([1]; Vardenafil 0.041 μM): 45804
- Stabilization ratio with Vardenafil ([1]; Vardenafil 0.123 μM vs DMSO): 5.4
- MFI ([1]; Vardenafil 0.123 μM): 74153
- Stabilization ratio with Vardenafil ([1]; Vardenafil 0.370 μM vs DMSO): 5.9
- MFI ([1]; Vardenafil 0.370 μM): 81663
- Stabilization ratio with Vardenafil ([1]; Vardenafil 1.111 μM vs DMSO): 6.5
- MFI ([1]; Vardenafil 1.111 μM): 89426
- Stabilization ratio with Vardenafil ([1]; Vardenafil 3.333 μM vs DMSO): 6.7
- MFI ([1]; Vardenafil 3.333 μM): 92290
- Stabilization ratio with Vardenafil ([1]; Vardenafil 10 μM vs DMSO): 6.3
- MFI ([1]; Vardenafil 10 μM): 86985
- Stabilization ratio with Vardenafil ([1]; Vardenafil 30 μM vs DMSO): 6.7
- MFI ([1]; Vardenafil 30 μM): 93145
- MFI ([2]; DMSO (no Tadalafil)): 15004
- Basal expression ([2]; Table 21, MFI with DMSO / parental HCT116, Tadalafil experiment): 11.72
- Stabilization ratio with Tadalafil ([2]; Tadalafil 0.01 μM vs DMSO): 0.9
- MFI ([2]; Tadalafil 0.01 μM): 14073
- Stabilization ratio with Tadalafil ([2]; Tadalafil 0.02 μM vs DMSO): 1.0
- MFI ([2]; Tadalafil 0.02 μM): 14513
- Stabilization ratio with Tadalafil ([2]; Tadalafil 0.05 μM vs DMSO): 1.0
- MFI ([2]; Tadalafil 0.05 μM): 15730
- Stabilization ratio with Tadalafil ([2]; Tadalafil 0.14 μM vs DMSO): 1.2
- MFI ([2]; Tadalafil 0.14 μM): 18316
- Stabilization ratio with Tadalafil ([2]; Tadalafil 0.41 μM vs DMSO): 1.9
- MFI ([2]; Tadalafil 0.41 μM): 28462
- Stabilization ratio with Tadalafil ([2]; Tadalafil 1.23 μM vs DMSO): 3.0
- MFI ([2]; Tadalafil 1.23 μM): 44739
- Stabilization ratio with Tadalafil ([2]; Tadalafil 3.7 μM vs DMSO): 4.6
- MFI ([2]; Tadalafil 3.7 μM): 69430
- Stabilization ratio with Tadalafil ([2]; Tadalafil 11.11 μM vs DMSO): 5.7
- MFI ([2]; Tadalafil 11.11 μM): 85998
- Stabilization ratio with Tadalafil ([2]; Tadalafil 33.33 μM vs DMSO): 6.3
- MFI ([2]; Tadalafil 33.33 μM): 95189
- Stabilization ratio with Tadalafil ([2]; Tadalafil 100 μM vs DMSO): 6.5
- MFI ([2]; Tadalafil 100 μM): 97016
- MFI ([3]; DMSO (no Sildenafil)): 13208
- Stabilization ratio with Sildenafil ([3]; Sildenafil 0.01 μM vs DMSO): 1.1
- MFI ([3]; Sildenafil 0.01 μM): 14613
- Stabilization ratio with Sildenafil ([3]; Sildenafil 0.02 μM vs DMSO): 1.2
- MFI ([3]; Sildenafil 0.02 μM): 16502
- Stabilization ratio with Sildenafil ([3]; Sildenafil 0.05 μM vs DMSO): 1.3
- MFI ([3]; Sildenafil 0.05 μM): 17801
- Stabilization ratio with Sildenafil ([3]; Sildenafil 0.14 μM vs DMSO): 2.0
- MFI ([3]; Sildenafil 0.14 μM): 26694
- Stabilization ratio with Sildenafil ([3]; Sildenafil 0.41 μM vs DMSO): 3.3
- MFI ([3]; Sildenafil 0.41 μM): 43862
- Stabilization ratio with Sildenafil ([3]; Sildenafil 1.23 μM vs DMSO): 5.0
- MFI ([3]; Sildenafil 1.23 μM): 65762
- Stabilization ratio with Sildenafil ([3]; Sildenafil 3.70 μM vs DMSO): 6.3
- MFI ([3]; Sildenafil 3.70 μM): 83657
- Stabilization ratio with Sildenafil ([3]; Sildenafil 11.11 μM vs DMSO): 6.1
- MFI ([3]; Sildenafil 11.11 μM): 80269
- Stabilization ratio with Sildenafil ([3]; Sildenafil 33.33 μM vs DMSO): 6.3
- MFI ([3]; Sildenafil 33.33 μM): 83663
- Stabilization ratio with Sildenafil ([3]; Sildenafil 100.00 μM vs DMSO): 6.1
- Basal expression ([3]; Table 26, MFI with DMSO / parental HCT116, Sildenafil experiment): 10.3
